Holding throughout (format): cell-based
For experiment [1], the system named is NCI-H295R cells. As to the kind of experiment: alamarBlue cytotoxicity assay, NCI-H295R. As to conditions: Homo sapiens, read-out: NCI-H295R (IC50). As for the experimental part:
(§1) RWPE-1 cells (ATCC: CRL-36O7) were cultured in keratinocyte serum-free media (K-SFM) supplemented with 0.05 mg/mL bovine pituitary extract and 5 ng/mL epidermal growth factor, and 1% penicillin (100 U/mL; Thermo Fisher Scientific, Waltham, MA, USA), and streptomycin (100 μg/mL; GIBCO). […] Passage numbers remained below 30 as per standard procedures. All cell lines were validated and characterized before use to ensure their authenticity and reliability. Routine mycoplasma testing was conducted to confirm that the cells were free from contamination. Additionally, key functional and morphological characteristics were assessed to verify their alignment with previously reported profiles.
(§2) The alamarBlue® assay (Thermo Fisher Scientific, Waltham, MA USA) was conducted as previously described. RWPE-1 cells, HEK-293 cells, and NCI-H295R cells were plated in 96-well plates at 10,000 cells per well and incubated overnight at 37 °C with 5% CO2. […] Cells were incubated for an additional 24 h. Cell viability was measured using the alamarBlue® assay. Post-incubation, 0.05 mg/mL alamarBlue® solution in phosphate-buffered saline (PBS) was added to each well. The plates were incubated in the dark at 37 °C with 5% CO2 for 4 h, and fluorescence was measured at an excitation wavelength of 540 nm and an emission wavelength of 590 nm. Cell viability was calculated relative to the control sample treated with DMSO. All experiments were conducted in triplicate.
A general note: The colour change of resazurin is a common sign of viable cells or microbes.

Experiment [2] has as its system HEK-293T cells. As to the kind of experiment: alamarBlue cytotoxicity assay, HEK-293T. As to conditions: Homo sapiens, read-out: HEK-293T (IC50). The protocol: as §1, §2
Experiment [3] deals with RWPE-1 cells. The experiment is described as follows: alamarBlue cytotoxicity assay, RWPE-1. As to conditions: Homo sapiens, read-out: RWPE-1 (IC50). As for the experimental part: as §1, §2
Experiment [4] addresses T1, CYP21A2 (Homo sapiens, UniProt P08686).
T1 construct: expressed in transfected cells; host or cells: HEK293 / HEK-293T
T1 sequence (P08686 1-495): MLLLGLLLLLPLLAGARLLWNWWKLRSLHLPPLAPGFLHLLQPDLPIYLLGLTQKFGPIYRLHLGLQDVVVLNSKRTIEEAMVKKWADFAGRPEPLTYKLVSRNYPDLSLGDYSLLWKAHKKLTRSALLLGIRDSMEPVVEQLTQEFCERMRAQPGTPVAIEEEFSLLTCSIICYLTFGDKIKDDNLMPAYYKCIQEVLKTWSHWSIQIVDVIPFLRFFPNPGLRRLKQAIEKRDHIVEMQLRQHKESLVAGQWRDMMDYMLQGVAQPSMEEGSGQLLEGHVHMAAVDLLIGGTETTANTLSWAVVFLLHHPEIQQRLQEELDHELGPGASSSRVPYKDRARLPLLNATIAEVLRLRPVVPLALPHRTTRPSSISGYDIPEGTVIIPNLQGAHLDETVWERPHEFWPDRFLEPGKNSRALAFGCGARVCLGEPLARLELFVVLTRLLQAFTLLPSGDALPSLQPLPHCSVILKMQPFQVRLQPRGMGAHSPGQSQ
As to the kind of experiment: CYP21A2 activity assay in transiently transfected HEK-293T cells. As to conditions: for inhibition at 10 µM: read-out: % Inhibition CYP21A2. The protocol:
Transient transfections were performed using the CYP21A2 WT vector as described previously. HEK293 cells were seeded in six-well plates (3 × 10^5 cells/well). After 24 h, the growth medium was replaced, and cells were transfected using Lipofectamine 2000 (Thermo Fisher Scientific, Bedford, MA, USA) with 12.5 µg of plasmid (plasmid concentration: 1068 µg/mL). Twenty-four hours after transfection, transfected cells were replated in 24-well plates (1.5 × 10^5 cells/well) to ensure homogeneity of the cell population across the wells. Six hours after transfection, 2 mL of fresh medium was replaced, and the cells were cultured for 48 h. Cell growth was examined. […] DMSO was added to the negative control, and 10 µM abiraterone was added to the positive control, and the cells were incubated for 4 h. Functional assays were initiated by adding 1 µM unlabeled progesterone (using 10,000 cpm of [^14C]-progesterone as a tracer). After incubation at 37 °C for 1 h, the culture medium and cells were harvested. Steroids were extracted from the culture medium with ethyl acetate and isooctane (1:1 volume ratio), dried, and dissolved in dichloromethane. Steroids were separated by thin-layer chromatography (TLC), placed on a phosphor screen, and visualized using a Typhoon PhosphorImager FLA-7000 (GE Healthcare Bio-Sciences AB, Uppsala, Sweden). Image intensity was measured and quantified using ImageQuant TL v8 (Cytiva, Marlborough, MA, USA). The CYP21A2 enzyme activity was expressed as relative steroid conversion. Steroids were quantified as a percentage of radioactivity incorporated into […] to the total radioactivity measured in the whole sample and compared between the WT and variants. Cells were collected with trypsin and washed with 1× PBS to quantify the amount of protein. Results were analyzed from three technical replicates. To ensure a similar amount of CYP21A2 in each reaction, a Western blot analysis was performed to normalize the enzyme activity with the relative CYP21A2 expression.

Where [5] appears, read: cytotoxicity, alamarBlue, 24 h incubation, mean ± SD, three experiments.
Where [6] appears, read: RWPE-1, cytotoxicity, alamarBlue, 24 h incubation, mean ± SD, three experiments.
Setting [7] is: 10 µM (SM extract 10 µg/mL), transfected HEK-293T cells, calculated as 100% − % residual activity.

Where two headings read alike, the source gives them in different places.

The IC50 is the concentration that gives 50% inhibition. Broadly, the inhibition is the change of the read-out against control, counted positive when it falls. On to `Cc1coc2c1C(=O)C(=O)c1c-2ccc2c1CCCC2(C)C` [TAII, tanshinone IIA], for which the IC50 in experiment [1] (setting [5]) stood at 1200 ± 3440 nM; in experiment [2] (setting [5]), 2260 ± 1920 nM; in experiment [3] (setting [6]), 4500 ± 11800 nM. For the same compound, the “% Inhibition CYP21A2” value in experiment [4] (setting [7]) was “no meaningful inhibition”. In addition, the inhibition at 10 µM in experiment [4] (setting [7]) was below 1%.

For `Cc1coc2c1C(=O)C(=O)c1c-2ccc2c(C)cccc12` [TAI, tanshinone I], the IC50 in experiment [1] (setting [5]) came to 1130 ± 630 nM; in experiment [2] (setting [5]), 1080 ± 260 nM; in experiment [3] (setting [6]) it was 2270 ± 3250 nM. Besides, in experiment [4] (setting [7]), the “% Inhibition CYP21A2” value is given as “no meaningful inhibition”. The inhibition at 10 µM in experiment [4] (setting [7]) was below 1%.

For `Cc1cccc2c3c(ccc12)C1=C(C(=O)C3=O)[C@@H](C)CO1` [DT, dihydrotanshinone I], the IC50 in experiment [1] (24 h) is 950 ± 480 nM; in experiment [2] (24 h), 1310 ± 470 nM; in experiment [3] (RWPE-1, 24 h), 1400 ± 420 nM. Moreover, the “Residual CYP21A2 activity” value in experiment [4] (% of DMSO control, 10 µM, transfected HEK-293T cells) is listed as 85%. Moreover, in experiment [4] (HEK-293T), the inhibition at 10 µM came to 14.9%.

Values taken from article PMC12838644, “Dihydrotanshinone as a Natural Product-Based CYP17A1 Lyase Inhibitor for Hyperandrogenic Disorders” (Biomolecules, 2026).
